Measurements taken from US20110230421A1, “FUSION PROTEINS OF APOPTIN-PROTEIN TR[…] OF CARBOXYL-TERMINUS OF EC-SOD” (priority 2008, published 2011).
Read-outs that look alike come from different tables or passages of the source.

B1: recombinant Apoptin: recombinant Apoptin protein isolated and purified from the prokaryotic expression system, used as the control (protein)
chain: MNALQEDTPPGPSTVFRPPTSSRPLETPHCREIRIGIAGITITLSLCGCANARAPTLRSATADNSESTGFKNVPDLRTDQPKPPSKKRSCDPSEYRVSELKESLITTTPSRPRTAKRRIRL
modifications: Chicken anemia virus
notes: recombinant Apoptin protein isolated and purified from the prokaryotic expression system, used as the control

Legend:
[1] = system: Lewis lung carcinoma; type: in vivo, mouse; settings: i.p. daily for 7-8 days, cyclophosphamide 20, Poly Arg-Apoptin 40, Apoptin-EC-SOD-PTD 10 mg/kgBW/day; for ratio of tumor inhibition: versus blank group mean tumor weight
Method: Four groups including a blank control, a positive control and a recombinant Apoptin-EC-SOD-PTD test group and a recombinant Poly Arg-Apoptin group were set for the experiment, and 8 animals were tested for each group. After inoculation of Lewis lung carcinoma cells, the blank control group was injected with saline water. Whereas, the positive control group was injected with cyclophosphamide solution (20 mg/kgBW/day). The two test groups were injected with the recombinant Apoptin-EC-SOD-PTD (10 mg/kgBW/day) which was purified, dialysed and sterile filtrated and recombinant Poly Arg-Apoptin (40 mg/kgBW/day), respectively.
1. Inoculation of carcinoma cell line: Six weeks old C57BU6 male mice with a weight of about 20 g were inoculated by armpit with 0.2 ml of Lewis lung carcinoma single cell suspension. After feeding for 3-4 days, tumor growth in the armpits of the mice was observed. Drug administration test would be initiated when the tumor grew to a size of several millimeters.
2. Administration: Drugs were administered by intraperitoneal injection, and the administrations were continued for 7-8 days. The mouse was weighed before daily administration.
3. Detecting ratio of tumor inhibition: After the drug administrations were stop for 2 days, the mice were sacrificed by breaking their necks. The tumor tissue was stripped from the body, weighted and calculated the ratio of tumor inhibition.
Ratio of tumor inhibition=(mean tumor weight of the blank group—mean tumor weight of the test group)/mean tumor weight of the blank group×100%.

[2] = system: HeLa cells; assay: MTT survival of HeLa cells cultured in vitro, 24 h; type: cell-based; settings: 100 μg/ml
Method: 1. The HeLa cells were cultured on the 96-well cell culture plate at 37° C. until the cell density reached to about 60%. Imidazole was removed from the recombinant Apoptin-EC-SOD-PTD sample isolated and purified after expressing by repeated dialysis. After sterile filtration, the protein was diluted by adding different volume of DMEM cell culture media. From the highest concentration of protein, the concentration was reduced by half dilution gradually until zero. And the solution without protein was used as the negative control; for each protein concentration group were selected 3-4 wells for parallel control. Meanwhile, the recombinant Apoptin protein isolated and purified from the prokaryotic expression system using the similar method was used as the control and conducted the same experimental operation. The two sets of samples were cultured for 24 h, drew culture media out and added the DMEM (100 μl) containing the 5 μg/ml of MTT, and then incubated for 4 hours at 37° C., drew the culture media out and added DMSO (100 μl) to dissolve the purple crystals, incubated for 10 min at 37° C. and measured its absorbance at 490 nm by a microplate reader. […]
2. Survival ratios of HeLa cells treated with different sample concentration were detected by MTT method.

| Molecule | weight of the tumor tissue X ± SD ([1]; tumor stripped 2 days after last dose) | ratio of tumor inhibition [1] | ratio of tumor inhibition ([1]; listed as positive control) | effect on the cell growth of HeLa [2] |
| --- | --- | --- | --- | --- |
| O=P1(N(CCCl)CCCl)NCCCO1 (stereo not shown) [cyclophosphamide] | 1.21 ± 0.119 | 47.4% | 47.4% | – |
| B1 | – | – | – | not obvious |
